The values below come from US5210215A, “Tryptophane and 3-indolepyruvic acid, methods of production therefor” (Polifarma S.p.A., priority 1989, dated 1993).

The structures appear in SMILES notation. Like-named read-outs stand apart in the source and are kept apart here.

For assay [1], the system named is convulsions and death induced by NMDA (N-methyl-D-aspartic acid). Briefly: Antagonism of convulsions and death induced by NMDA (N-methyl-D-aspartic acid). Type of assay: in vivo. Conditions: Mus musculus, ip, mice, IC50 = dose necessary to reduce by 50% the harmful effect. Here is the method:
For the second experiment, on the contrary, the capacity of the compounds to antagonize the convulsions and death induced by NMDA (N-methyl-D-aspartic acid), an excitatory amino acid, was evaluated.
(§1) of compound necessary to reduce by 50% the harmful effect to be added to the in vitro tests or to be administered to mice.

Assay [2] relates to formation of free radicals from biological membrane undergoing oxidative stress (MDA formation). Briefly: Formation of malonodialdehyde (MDA) test: antagonism of free radical formation from biological membrane undergoing oxidative stress. Conditions: in vitro; IC50 = dose of compound necessary to reduce by 50% the harmful effect. Type of assay: biochemical. The procedure: For the first experiment was chosen the test on formation of malonodialdehyde (MDA). Briefly, the capacity was tested of the above compounds to antagonize the formation of free radicals from biological membrane undergoing oxidative stress.
as §1

The mark [3] stands for this setting: convulsions, read-out: CONVULSIONS from MDA IC50.
[4] abbreviates: death, read-out: DEATH from MDA IC50.

With `O=C(O)C(=O)Cc1c[nH]c2c(Cl)cccc12` [7-Cl-IPA], the ED50 in assay [1] (setting [3]) stood at 1000 mg/kg; in assay [1] (setting [4]) it was 200 mg/kg. Moreover, the 50% inhibitory concentration (IC50) in assay [2] is 400 µM.

Regarding `O=C(O)C(=O)Cc1c[nH]c2cccc(Cl)c12` [4-Cl-IPA, 4-chloro-indole-3-yl-pyruvic], the ED50 in assay [1] (setting [3]) came to 1000 mg/kg; in assay [1] (setting [4]) it was 200 mg/kg. In assay [2], this compound registered an IC50 of 1000 µM.

On to `NC(Cc1c[nH]c2cc(Cl)ccc12)C(=O)O` (racemic) [6-Cl-TRP, 6-chloro-DL-tryptophan], for which the ED50 was found to be 1000 mg/kg in assay [1] (setting [3]) and 200 mg/kg in assay [1] (setting [4]). This compound registered a half-maximal inhibitory concentration (IC50) in assay [2] of 1000 µM.

`O=C(O)C(=O)Cc1c[nH]c2cc(Cl)ccc12` [6-Cl-IPA, 6-chloro-indole-3-yl-pyruvic acid]: the ED50 was determined as 20 mg/kg in assay [1] (setting [3]) and 10 mg/kg in assay [1] (setting [4]). This compound also showed an IC50 in assay [2] of 100 µM.

For the compound `Cc1ccc2c(CC(=O)C(=O)O)c[nH]c2c1` [6-Me-IPA, 6-methyl-indole-3-yl-pyruvic], the ED50 in assay [1] (setting [3]) amounted to 200 mg/kg; in assay [1] (setting [4]), 100 mg/kg. The compound also had an IC50 in assay [2] of 60 µM.

With `O=C(O)C(=O)Cc1c[nH]c2ccc(Cl)cc12` [5-Cl-IPA, 5-chloro-indole-3-yl-pyruvic], the figures for the ED50 in assay [1] (setting [3]) and in assay [1] (setting [4]) were 600 mg/kg and 200 mg/kg, respectively. The same compound displayed an IC50 in assay [2] of 500 µM.

Regarding `O=C(O)C(=O)Cc1c[nH]c2cc(Br)ccc12` [6-Br-IPA], the ED50 was 100 mg/kg in assay [1] (setting [3]) and 20 mg/kg in assay [1] (setting [4]). In assay [2], this compound yielded an IC50 of 50 µM.

As to `O=C(O)C(=O)Cc1c[nH]c2cc(O)ccc12` [6-OH-IPA], the ED50 in assay [1] (setting [3]) came out at 800 mg/kg; in assay [1] (setting [4]), 200 mg/kg. Besides, half-maximal inhibition in assay [2] (IC50) was put at 500 µM.

`COc1ccc2c(CC(=O)C(=O)O)c[nH]c2c1` [6-OMe-IPA]: the ED50 in assay [1] (setting [3]) was 200 mg/kg; in assay [1] (setting [4]), 100 mg/kg. Besides, the IC50 in assay [2] came to 100 µM.

For `O=C(O)C(=O)Cc1c[nH]c2ccccc12` [IPA, 3-indolepyruvic acid], the figures for the ED50 in assay [1] (setting [3]) and in assay [1] (setting [4]) were 200 mg/kg and 50 mg/kg, respectively. This compound returned an IC50 in assay [2] of 10 µM.
